# Read-outs that look alike come from different tables or passages of the source.
# Legend:
# [1] = tested on: rat gastric fundus strips; experiment: Contraction of rat gastric fundus strips; format: cell-based; conditions: for relative potency of inhibition of contraction amplitude: 5HT (10 μM) present, FIG. 8
# Description: Male and female Sprague-Dawley rats weighing 200-300 g were anesthetized with 40 mg/kg sodium pentobarbital given intraperitoneally. After deep anesthesia was obtained, exsanguination was accomplished by severing both the jugular vein and common carotid artery. The abdomen was opened at the midline and the stomach was removed, and transferred to the ice cold oxygenated Krebs' solution at pH 7.4. The stomach was dissected out and the pink pyloric end cut away from the grey fundal end. The fundal end was split open so as to form a sheet, the contents were washed away. Longitudinal muscle strips (3×20 mm) of the gastric fundus were prepared as described by Vane (Vane, Br. J. Pharmac. Chemother., 12:344, 1957). The strips were mounted under a 1-g resting tension between two parallel platinum electrodes placed inside the organ baths containing 20-ml of the gassed Krebs' solution. The Krebs' solution also contained atropine (1 μM) and guanethidine (4 μM) to block cholinergic and adrenergic involvement in response to field stimulation of intramural nerves and 5-hydroxytryptamine (5-HT, 5-10 μM) to raise the tone of the smooth muscle. In some experiments, indomethacin (10 μM) was present in Krebs' to avoid the influence of endogenous prostaglandins. Tissues were allowed to equilibrate for 1 h with changes of Krebs' solution every 10 minutes.
# After the equilibration period, relaxations of smooth muscle were elicited by VIP, VIPGC, VIPGC-NO, isoproterenol and GSNO. In some experiments, the strips were incubated for 10 minutes with N^G -monomethyl L-arginine (L-NMMA).
# rabbit sphincter of Oddi = experiment: Contractility of isolated rabbit sphincter of Oddi; format: cell-based; conditions: for effect on ACh-induced contractions: ACh-pretreated (10 μM), cumulative addition, peptides 1 nM-1 μM, GSNO 0.1-100 μM; for inhibition at 100 µM: Oryctolagus cuniculus
# Description: The preparation of rabbit sphincters of Oddi (SO) was similar to that described previously (Slivka et al. 1994) with minor modifications. Briefly, the rabbit abdomen was opened at the midline. The gall bladder, bile duct, gastric antrum and contiguous duodenum were isolated, removed en bloc, and transferred to ice cold Krebs' solution at pH 7.4. The duodenum was opened along the antimesenteric border as was the adjacent pylorus and gastric antrum. From the luminal surface, the ampulla of Vater was identified and the SO isolated on ice under an illuminated magnifier by sharp dissection.
# The SO were mounted on pairs of the hooks and suspended in organ chambers containing the Krebs' solution at 37° C. Resting tension was adjusted to 1 g, and circular contractions were monitored by the FT03C force transducer and recorded on the model 7 Grass polygraphs. SO were allowed to equilibrate as described above. […] Some experiments were performed by using ACh to intensify SO contractility, and then the effects of VIP, VIPGC-NO, VIPGC and GSNO on SO contractility were tested. After each experimental observation was complete, the SO were washed at least three times with fresh Krebs' solution.
# rabbit aortic rings = experiment: Relaxation of precontracted rabbit aortic rings (isometric tension); format: cell-based; conditions: for relaxation of aortic rings, cumulative additions: intact rings precontracted with phenylephrine (100 μM), 10 nM to 1 μM, FIG. 2
# Description: Briefly, male New Zealand rabbits weighing 1.5 to 2.0 Kg were anesthetized by an intravenous injection of sodium pentobarbital (40 mg/kg) into a marginal ear vein. The descending thoracic aorta was quickly removed and placed in ice-cold Krebs' solution containing the following composition (mM): NaCl, 118; KCl, 4.8; MgSO4, 1.2; CaCl2, 2.5; KH2 PO4, 1.2; NaHCO3, 25; glucose, 11; Na2 EDTA, 0.03. The thoracic aorta was first trimmed free of most adipose and connective tissue. It was then cut into transverse rings by placing it at a right angle across five parallel razor blades mounted at 2.5 mm intervals in a plastic holder and then rolling a large polypropylene pipette tip over it (simultaneously producing four rings of equal size). The aortic rings and other tissues (see the following) used in this study, were mounted on pairs of L-shaped hooks and suspended in Krebs' solution (gassed with 95% 02 /5% CO2, 37° C.) in 20 ml organ chambers unless stated otherwise.
# Results are expressed in percentage of relaxation of phenylephrine-induced tone.
# [2] = tested on: cGMP and cAMP content of rabbit aortic rings; experiment: Cyclic GMP and cyclic AMP content of rabbit aortic rings (enzyme-immunoassay); format: cell-based; conditions: 1 μM, FIG. 9; for cGMP content of aortic rings: at maximum relaxation
# Description: (§3) Frozen tissues were homogenized in ice-cold 6% trichloroacetic acid to give approximately a 10% (w/v) homogenate. The homogenates were centrifuged at 2,000 g for 15 minutes at 4° C. The supernatant fractions were decanted off the pellets and washed four times with 5 volumes of water-saturated ethyl ether, and the aqueous extracts remaining were saved for assay for cyclic GMP and AMP using enzyme-immunoassay kits (Amersham Life Science Inc., Arlington Heights, IL).
# [3] = tested on: cGMP and cAMP content of guinea pig tracheal rings; experiment: Cyclic GMP and cyclic AMP content of guinea pig tracheal rings (enzyme-immunoassay); format: cell-based; conditions: 100 nM, n=4, FIG. 10; for cGMP content of tracheal rings: at plateau of relaxation
# Description: as §3
# guinea-pig trachea [4] = conditions: for time for relaxation to reach a plateau: 100 nM; for effect of pretreatment with 100 nM propanol on the induced relaxation: cumulative additions, dose range 10-320 nM; for IC50: read-out: IC50 of relaxation of tracheal rings, precontracted with 10 μM methacholine, FIG. 4
# Description: (§4) Male Hartley guinea pigs (300-400 g) were anesthetized by use of intraperitoneal injection of pentobarbital sodium (40 mg/kg) to achieve a deep plane of anesthesia. The tracheas were dissected out, transferred to cold Krebs' solution. Tracheas were then dissected free from surrounding fat and connective tissue and cut transversely between the segments of cartilage, so as to give tracheal rings about 2 mm thick. The rings were suspended between stainless-steel hooks in the 20 ml organ baths containing the above-mentioned Krebs' solution at 37° C. The hooks were connected to the FT03C transducers. Rings were equilibrated at a basal tension of 1 g as described above and then primed twice with methacholine (100 nM). The rings were rinsed throughout after each priming exposure. Tracheal rings were not used if they could not sustain at least 1 g tension when exposed to 100 nM methacholine. The surface of organ baths was treated with 1N HCl to minimize contamination and allowed to dry in room air before Krebs' solution were added. For relaxation studies, methacholine (100 nM) was used to contract the tracheal rings and results are expressed in percentage of relaxation of methacholine-induced tone.
# corpora cavernosa = experiment: Erectile response (intracavernosal pressure) in vivo in the anesthetized dog
# Description: (§1) Male mongrel dogs (20-30 kg) were used as the animal model. Under pentobarbital anesthesia (30 mg/kg) and mechanical respiration, a 20 gauge anglocatheter was placed into the carotid artery for measurement of systemic blood pressure. A ventral incision was made in the penis and the corpora cavernosa were exposed.
# (§2) A 19 gauge minicatheter was inserted deep into the cavernosal tissue, on each corpus, for pressure measurement and delivery of either VIP, VIP-Gly-Cys-NO, VIP-Gly-Cys-NH2 or papaverine. […] Drugs were delivered intracavernosally in solution, 0.5 ml volume, at variable syringe concentrations, starting at 10^-7 M and progressively increasing the dose up to, in some instances, 10^-4 M. In most experiments, at the end, papaverine 80 mM was administered intracavernosally in order to compare this response to those elicited by VIP or its analogs. At all times systemic blood pressure was monitored, for comparison with intracavernosal pressure.
# [5] = dog, in vivo
# Description: as §1, §2
# guinea-pig trachea [6] = experiment: tissue or blood; conditions: Cavia porcellus, read-out: IC50 of relaxation of tracheal rings
# Description: as §4
structure (smiles),measurement,setting,value
"NCCc1c[nH]c2ccc(O)cc12 [5HT, 5-hydroxytryptamine]",effect on contractions of the strips,[1]; 10 μM,significant increase in contractions
"CC(=O)OCC[N+](C)(C)C [ACh, acetylcholine]",acceleration in phasic contractions,"rabbit sphincter of Oddi; 10 μM, n=12",69±15%
same,elevations in tonic pressure,"rabbit sphincter of Oddi; 10 μM, n=12",73±12%
"N[C@@H](CCC(=O)N[C@@H](CSN=O)C(=O)NCC(=O)O)C(=O)O [GSNO, S-nitrosoglutathione]","relaxation of aortic rings, cumulative additions",rabbit aortic rings,also observed in the rings exposed to GSNO
same,effect on ACh-induced contractions,rabbit sphincter of Oddi,gradually attenuated
same,inhibition at 100 µM,"rabbit sphincter of Oddi; ACh 10 μM, read-out: inhibition of ACh-enhanced phasic contractions",89 ± 5%
same,inhibition at 100 µM,rabbit sphincter of Oddi; read-out: inhibition of basic contractility of sphincter of Oddi,91 ± 9%
same,relative potency of inhibition of contraction amplitude,[1],two least potent inhibitors
same,cGMP content of aortic rings,[2],significant increase in cGMP concentration
same,cAMP content of aortic rings,[2],no significant increase in cAMP content
"CC[C@H](C)[C@H](NC(=O)[C@H](CO)NC(=O)[C@H](CC(N)=O)NC(=O)[C@H](CC(C)C)NC(=O)[C@H](Cc1ccc(O)cc1)NC(=O)[C@H](CCCCN)NC(=O)[C@H](CCCCN)NC(=O)[C@@H](NC(=O)[C@H](C)NC(=O)[C@H](CCSC)NC(=O)[C@H](CCC(N)=O)NC(=O)[C@H](CCCCN)NC(=O)[C@H](CCCNC(=N)N)NC(=O)[C@H](CC(C)C)NC(=O)[C@H](CCCNC(=N)N)NC(=O)[C@@H](NC(=O)[C@H](Cc1ccc(O)cc1)NC(=O)[C@H](CC(N)=O)NC(=O)[C@H](CC(=O)O)NC(=O)[C@@H](NC(=O)[C@H](Cc1ccccc1)NC(=O)[C@@H](NC(=O)[C@H](C)NC(=O)[C@H](CC(=O)O)NC(=O)[C@H](CO)NC(=O)[C@@H](N)Cc1c[nH]cn1)C(C)C)[C@@H](C)O)[C@@H](C)O)C(C)C)C(=O)N[C@@H](CC(C)C)C(=O)N[C@@H](CC(N)=O)C(N)=O [VIP, vasoactive intestinal peptide]",cGMP content of tracheal rings,[3],significant increase in the content of cGMP
same,cAMP content of tracheal rings,[3],no concomitant increases in the cAMP level
same,"relaxation of aortic rings, cumulative additions",rabbit aortic rings,certain degree of relaxation only at 1 μM
same,relaxation of phenylephrine-precontracted aortic rings,"rabbit aortic rings; single doses (1 μM), FIG. 3",19±4%
same,persistence of effect,rabbit sphincter of Oddi,at least 90 minutes
same,time to observed effect after addition to organ chambers,rabbit sphincter of Oddi,≤ 2 min
same,inhibition of contraction frequency,rabbit sphincter of Oddi; 1 μM,94±16%
same,inhibition of ACh-enhanced phasic contractions,"rabbit sphincter of Oddi; 1 μM, ACh 10 μM",93±7%
same,effect on ACh-induced contractions,rabbit sphincter of Oddi,gradually attenuated
same,inhibition of basic contraction frequency and amplitude,"rabbit sphincter of Oddi; cumulative addition 1 nM-1 μM, FIG. 5, 6",inhibited both basic contraction frequency and amplitude dose-dependently
same,irregular and incomplete contractions noted during incubation,"rabbit sphincter of Oddi; single dose 0.1 μM, 30 minutes, n=5, FIG. 7",40±11
same,time for relaxation to reach a plateau,guinea-pig trachea [4],about 20 minutes
same,effect of pretreatment with 100 nM propanol on the induced relaxation,guinea-pig trachea [4],did not antagonize
same,erectile response,"corpora cavernosa; 10^-5 M, FIG. 16",partial and short erectile response
same,erectile response,"corpora cavernosa; intracavernosal 10^-5 M, FIG. 13",capable of inducing sustained penile erection
same,cGMP content of aortic rings,[2],less than that of VIPGC-NO or GSNO
same,cAMP content of aortic rings,[2],no significant increase in cAMP content
"CC[C@H](C)[C@H](NC(=O)[C@H](CO)NC(=O)[C@H](CC(N)=O)NC(=O)[C@H](CC(C)C)NC(=O)[C@H](Cc1ccc(O)cc1)NC(=O)[C@H](CCCCN)NC(=O)[C@H](CCCCN)NC(=O)[C@@H](NC(=O)[C@H](C)NC(=O)[C@H](CCSC)NC(=O)[C@H](CCC(N)=O)NC(=O)[C@H](CCCCN)NC(=O)[C@H](CCCNC(=N)N)NC(=O)[C@H](CC(C)C)NC(=O)[C@H](CCCNC(=N)N)NC(=O)[C@@H](NC(=O)[C@H](Cc1ccc(O)cc1)NC(=O)[C@H](CC(N)=O)NC(=O)[C@H](CC(=O)O)NC(=O)[C@@H](NC(=O)[C@H](Cc1ccccc1)NC(=O)[C@@H](NC(=O)[C@H](C)NC(=O)[C@H](CC(=O)O)NC(=O)[C@H](CO)NC(=O)[C@@H](N)Cc1c[nH]cn1)C(C)C)[C@@H](C)O)[C@@H](C)O)C(C)C)C(=O)N[C@@H](CC(C)C)C(=O)N[C@@H](CC(N)=O)C(=O)NCC(=O)N[C@@H](CS)C(N)=O [VIPGC, VIP-Gly-Cys-NH2]",diastolic blood pressure (DBP),[5],120 mm Hg
same,IC50,guinea-pig trachea [4],59 ± 9 nM
"CC[C@H](C)[C@H](NC(=O)[C@H](CO)NC(=O)[C@H](CC(N)=O)NC(=O)[C@H](CC(C)C)NC(=O)[C@H](Cc1ccc(O)cc1)NC(=O)[C@H](CCCCN)NC(=O)[C@H](CCCCN)NC(=O)[C@@H](NC(=O)[C@H](C)NC(=O)[C@H](CCSC)NC(=O)[C@H](CCC(N)=O)NC(=O)[C@H](CCCCN)NC(=O)[C@H](CCCNC(=N)N)NC(=O)[C@H](CC(C)C)NC(=O)[C@H](CCCNC(=N)N)NC(=O)[C@@H](NC(=O)[C@H](Cc1ccc(O)cc1)NC(=O)[C@H](CC(N)=O)NC(=O)[C@H](CC(=O)O)NC(=O)[C@@H](NC(=O)[C@H](Cc1ccccc1)NC(=O)[C@@H](NC(=O)[C@H](C)NC(=O)[C@H](CC(=O)O)NC(=O)[C@H](CO)NC(=O)[C@@H](N)Cc1c[nH]cn1)C(C)C)[C@@H](C)O)[C@@H](C)O)C(C)C)C(=O)N[C@@H](CC(C)C)C(=O)N[C@@H](CC(N)=O)C(=O)NCC(=O)N[C@@H](CSN=O)C(N)=O [VIPGC-NO, VIP-Gly-Cys-NO]",diastolic blood pressure (DBP),[5],120 mm Hg
same,IC50,guinea-pig trachea [4],32 ± 6 nM
CC(C)NCC(O)c1ccc(O)c(O)c1 (stereo not shown) [isoproterenol],cGMP content of tracheal rings,[3],no appreciable changes in the cGMP content
same,cAMP content of tracheal rings,[3],significant increase in the cAMP level
same,relative potency of inhibition of contraction amplitude,[1],two least potent inhibitors
same,time for relaxation to reach a plateau,guinea-pig trachea [4],about 5 minutes
same,effect of pretreatment with 100 nM propanol on the induced relaxation,guinea-pig trachea [4],blocked
same,IC50,guinea-pig trachea [6],47 ± 3 nM

# Reference: patent publication US5612314A, “Nitrosylated neuropeptides” (Brigham & Women's Hospital, priority 1995, dated 1997)
